Results reported in patent US12478601B2, “Dietary product devoid of at least two non essential amino acids” (CANCER RESEARCH TECHNOLOGY LIMITED, priority 2016, dated 2025).
Counter-ions that a name gives are not always drawn. Like-named read-outs stand apart in the source and are kept apart here.

Tests used:
[1] = tested on: HCT116, DLD1 and SW480; assay: Synergy score screen: chemotherapeutic agents in low serine, glycine, cysteine medium, cell counts
Description: Human cell lines HCT116, DLD1 and SW480 were seeded into 96-well plates either in complete medium containing serine, glycine and cysteine at 100 uM, with all other amino acids present, or low serine, glycine, cysteine (17-23 uM) medium with all other amino acids present. After 6 hours the stated chemotherapeutic agents were added (at doses of 0.01, 0.1 and 1 uM) to the wells and cells were incubated for a further 48 hours. After this time cells were formalin fixed and stained with a fluorescent nuclear stain for cell counting on an automated (Operetta) plate reader.

[2] = tested on: lymphoma (based on Eμ-Myc expression)
Excerpt: On normal chow, dietary amino acids are derived from whole proteins contained in the raw ingredients (wheat, wheatfeed, barley, de-hulled extracted toasted soya, maize and fish meal), with a small amount of purified lysine added as a supplement. […] “Diet 2-Control” contained all essential amino acids plus serine, glycine, glutamine, arginine, cystine, tyrosine, alanine, proline, glutamate and asparagine; “Diet 2-No Ser, No Gly/Diet 2-SG-free” was the same as Diet 2-Control, but without serine and glycine, with the other amino acid levels increased proportionally to achieve the same total amino acid content. “Diet 2” formulations were used for the Eμ-Myc-Tigar^−/− cohort (FIG. 19, panel f). All other cohorts received the previously published “Diet 1” formulations.
Mus Musculus cohorts were housed in a barriered facility proactive in environmental enrichment. The Eμ-Myc11, ApcMin/+, Lgr5creER; Apcf1/f1 and Pdx1cre; KrasG12D; Trp53f1/+ or Trp53R172H/+ mice/models have been previously described. Mixed male and female populations were used for each genotype. […] Eμ-Myc, and ApcMin/+ mice were at least 20 generations C57BL/6J. Eμ-Myc; Tigarf1/f1 mice were at least 50% C57BL/6J. Mice were put on the appropriate diet at the following times: Eμ-Myc pure bred 60 days post-natal, Eμ-Myc; Tigarf1/f1 55 days post-natal, ApcMin/+80 days post-natal, Lgr5creER; Apcf1/f1 7 days post-induction, Pdx1cre; KrasG12D; Trp53f1/+ or Trp53R172H/+60 days post-natal. […] For the metformin experiment, ApcMin/+ mice were given 200 mg/kg/day in their drinking water, starting 4 days after the diet change. All mice were taken to clinical end-point. […]
Samples were prepared in cold (−20° C.) lysis solvent (LS) consisting of methanol, acetonitrile, and H2O (50:30:20). […] Extracts were analysed on an LCMS platform consisting of an Accela 600 LC system and an Exactive mass spectrometer (Thermo Scientific). […] The raw data was analysed by LCquan (Thermo Scientific) and MZMine 2.10 for metabolite identification and quantification. […]

[3] = average synergy score for three colorectal cells lines, drug at 0.01, 0.1 and 1 uM for 48 hours, low serine, glycine, cysteine (17-23 uM) vs complete medium (100 uM)

| Molecule | SYNERGY SCORE [1, 3] | further results |
| --- | --- | --- |
| CN(C)C/C=C/C(=O)Nc1cc2c(Nc3ccc(F)c(Cl)c3)ncnc2cc1O[C@H]1CCOC1 [Afatinib] | 1.18 |  |
| CC(C)(C#N)c1cc(Cn2cncn2)cc(C(C)(C)C#N)c1 [Anastrozole] |  | SYNERGY SCORE [1]: 1.43 |
| COc1cc(Nc2c(C#N)cnc3cc(OCCCN4CCN(C)CC4)c(OC)cc23)c(Cl)cc1Cl [Bosutinib] | 1.95 |  |
| COc1cc2nccc(Oc3ccc(NC(=O)C4(C(=O)Nc5ccc(F)cc5)CC4)cc3)c2cc1OC [Cabozantinib] | 4.51 |  |
| CC(C)C[C@H](NC(=O)[C@H](CCc1ccccc1)NC(=O)CN1CCOCC1)C(=O)N[C@@H](Cc1ccccc1)C(=O)N[C@@H](CC(C)C)C(=O)[C@@]1(C)CO1 [Carfilzomib] | 1.65 |  |
| Cc1cc(Nc2ncc(Cl)c(Nc3ccccc3S(=O)(=O)C(C)C)n2)c(OC(C)C)cc1C1CCNCC1 [Ceritinib] | 2.56 |  |
| N.N.[Cl][Pt][Cl] [Cisplatin] | 1.79 |  |
| COc1cccc2c1C(=O)c1c(O)c3c(c(O)c1C2=O)C[C@@](O)(C(=O)CO)C[C@@H]3O[C@H]1C[C@H](N)[C@H](O)[C@H](C)O1 [Doxorubicin hydrochloride] | 1.76 |  |
| COc1cccc2c1C(=O)c1c(O)c3c(c(O)c1C2=O)C[C@@](O)(C(=O)CO)C[C@@H]3O[C@H]1C[C@H](N)[C@@H](O)[C@H](C)O1 [Epirubicin hydrochloride] | 1.40 |  |
| CO[C@H]1C[C@@H]2CC[C@@H](C)[C@@](O)(O2)C(=O)C(=O)N2CCCC[C@H]2C(=O)O[C@H]([C@H](C)C[C@@H]2CC[C@@H](OCCO)[C@H](OC)C2)CC(=O)[C@H](C)/C=C(\C)[C@@H](O)[C@@H](OC)C(=O)[C@H](C)C[C@H](C)/C=C/C=C/C=C/1C [Everolimus] | 3.33 |  |
| C=C1C[C@@H]2[C@H](CC[C@]3(C)C(=O)CC[C@@H]23)[C@@]2(C)C=CC(=O)C=C12 [Exemestane] | 2.14 |  |
| Nc1nc(F)nc2c1ncn2[C@@H]1O[C@H](COP(=O)(O)O)[C@@H](O)[C@@H]1O [Fludarabine phosphate] |  | SYNERGY SCORE [1]: 2.76 |
| CC[C@H](Nc1ncnc2[nH]cnc12)c1nc2cccc(F)c2c(=O)n1-c1ccccc1 [Idelalisib] | 4.05 |  |
| Nc1cccc2c1CN(C1CCC(=O)NC1=O)C2=O (centres unmarked) [Lenalidomide] | 1.94 |  |
| O=C(c1cc(Cc2n[nH]c(=O)c3ccccc23)ccc1F)N1CCN(C(=O)C2CC2)CC1 [Olaparib] | 1.46 |  |
| Cc1ccc(C(=O)Nc2ccc(CN3CCN(C)CC3)c(C(F)(F)F)c2)cc1C#Cc1cnc2cccnn12 [Ponatinib] |  | SYNERGY SCORE [1]: 1.00 |
| CNC(=O)c1cc(Oc2ccc(NC(=O)Nc3ccc(Cl)c(C(F)(F)F)c3)c(F)c2)ccn1 [Regorafenib] | 2.29 |  |
| C/C=C1\NC(=O)[C@H]2CSSCC/C=C/[C@H](CC(=O)N[C@H](C(C)C)C(=O)N2)OC(=O)[C@H](C(C)C)NC1=O [Romidepsin] |  | SYNERGY SCORE [1]: 2.03 |
| CNC(=O)c1cc(Oc2ccc(NC(=O)Nc3ccc(Cl)c(C(F)(F)F)c3)cc2)ccn1 [Sorafenib] | 2.26 |  |
| CO[C@H]1C[C@@H]2CC[C@@H](C)[C@@](O)(O2)C(=O)C(=O)N2CCCC[C@H]2C(=O)O[C@H]([C@H](C)C[C@@H]2CC[C@@H](OC(=O)C(C)(CO)CO)[C@H](OC)C2)CC(=O)[C@H](C)/C=C(\C)[C@@H](O)[C@@H](OC)C(=O)[C@H](C)C[C@H](C)/C=C/C=C/C=C/1C [Temsirolimus] | 3.90 |  |
| CS(=O)(=O)c1ccc(C(=O)Nc2ccc(Cl)c(-c3ccccn3)c2)c(Cl)c1 [Vismodegib] |  | SYNERGY SCORE [1]: 1.53 |
| O=C(CCCCCCC(=O)Nc1ccccc1)NO [Vorinostat] | 4.94 |  |
| [H]/N=C(/N)N/C(=N/[H])NCCc1ccccc1 [phenformin] |  | tolerability ([2]; 100 mg/kg/day by gavage, mice on normal diet): tolerated; mice already recruited that did not succumb to toxicity ([2]; 100 mg/kg/day with serine and glycine deficient diet): 7/14; survival, diet with phenformin compared to serine and glycine free diet alone ([2]; 100 mg/kg/day, not statistically significant): trend for improved survival |
| Arsenic trioxide |  | SYNERGY SCORE [1]: 2.52 |
